In US12286428B2 (BRISTOL-MYERS SQUIBB COMPANY, priority 2019, dated 2025) one finds IC50 data, which are given here for 28 molecules.

For orientation: IC50 means the midpoint of a concentration-inhibition curve.

One assay relates to Human whole blood, IL-6 levels after TLR2 agonist lipoteichoic acid. In words: IRAK4 Whole Blood Assay. The format is cell-based. To be noted: compounds 60 minutes at 37° C., lipoteichoic acid 10 μg/mL for 5 hours. The procedure:
IRAK4 Whole Blood Assay Human whole blood containing the anti-coagulant ACD-A was plated in 384-well plate (25 μL/well) and incubated with compounds for 60 minutes at 37° C. in a 5% CO2 incubator. The blood was stimulated with a TLR2 agonist, 10 μg/mL final concentration of lipoteichoic acid (Invivogen, San Diego, CA) in 25 μL RPMI (Gibco) for 5 hours in a 5% CO2 incubator. At the end of the incubation, plates were centrifuged at 2300 rpm for 5 minutes. Supernatants were harvested and analyzed for IL-6 levels by Flow Cytometry beads assay (BD Biosciences, San Jose, CA).
Take “1-(((2S,3S,4S)-3-ethyl-4-fluoro-5-oxotetrahydrofuran-2-yl)methoxy)-8-methyl-8,9-dihydrofuro[2,3-h]isoquinoline-6-carboxamide [Example 51]”: the IC50 is 0.399 µM.

Molecule `NC(=O)c1cc2cccc(OC[C@@H]3CCC(=O)N3)c2n2ccnc12` [Example 1, (S)-9-((5-oxopyrrolidin-2-yl)methoxy)imidazo[1,2-a]quinoline-4-carboxamide] yielded an IC50 of 1.42 µM.

For the molecule `CC[C@@H]1CC(=O)N[C@@H]1COc1cccc2cc(C(N)=O)c3nccn3c12` [Example 2, 9-(((2S,3R)-3-ethyl-5-oxopyrrolidin-2-yl)methoxy)imidazo[1,2-a]quinoline-4-carboxamide], the IC50 stood at 0.306 µM.

Another assay has as its target T1, IRAK4 (Homo sapiens, UniProt Q9NWZ3).
T1 sequence (Q9NWZ3 1-460): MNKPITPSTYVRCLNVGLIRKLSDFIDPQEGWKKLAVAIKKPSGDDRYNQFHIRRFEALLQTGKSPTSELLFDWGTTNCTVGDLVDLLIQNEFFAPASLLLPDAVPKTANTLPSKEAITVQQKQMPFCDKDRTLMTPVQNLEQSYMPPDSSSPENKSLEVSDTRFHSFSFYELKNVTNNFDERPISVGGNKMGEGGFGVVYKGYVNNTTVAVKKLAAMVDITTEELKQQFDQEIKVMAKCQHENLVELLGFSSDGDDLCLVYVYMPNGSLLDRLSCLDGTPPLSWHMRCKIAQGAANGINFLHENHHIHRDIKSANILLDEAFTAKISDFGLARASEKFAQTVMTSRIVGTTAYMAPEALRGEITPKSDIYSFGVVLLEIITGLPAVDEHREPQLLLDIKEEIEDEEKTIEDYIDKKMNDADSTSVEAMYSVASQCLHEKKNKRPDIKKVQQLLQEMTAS
Put plainly: IRAK4 Inhibition Assay. The format is biochemical. Conditions: ATP 500 μM; FL-IPTSPITTTYFFFKKK peptide […]; IRAK4 0.6 nM; 60 min room temperature; Caliper LABCHIP 3000. The procedure: The assays were performed in U-bottom 384-well plates. […] The reaction was initiated by the combination of IRAK4 with substrates and test compounds. The reaction mixture was incubated at room temperature for 60 min. and terminated by adding 45 μL of 35 mM EDTA to each sample. The reaction mixture was analyzed on the Caliper LABCHIP® 3000 (Caliper, Hopkinton, MA) by electrophoretic separation of the fluorescent substrate and phosphorylated product. […] The final concentrations of reagents in the assays are ATP, 500 μM; FL-[…] peptide 1.5 μM; IRAK4, 0.6 nM; and DMSO, 1.6%.
With “1-(((2S,3S,4S)-3-ethyl-4-fluoro-5-oxotetrahydrofuran-2-yl)methoxy)-8-methyl-8,9-dihydrofuro[2,3-h]isoquinoline-6-carboxamide [Example 51]”, the half-maximal inhibitory concentration (IC50) was determined as 0.0031 µM.

On to “1-(((2S,3S,4S)-3-ethyl-4-fluoro-5-oxotetrahydrofuran-2-yl)methoxy)-8-methyl-8,9-dihydrofuro[2,3-h]isoquinoline-6-carboxamide [Example 52]”, for which the IC50 worked out at 0.0013 µM.

In the case of `NC(=O)c1cc2cccc(OC[C@@H]3CCC(=O)N3)c2n2ccnc12` [Example 1, (S)-9-((5-oxopyrrolidin-2-yl)methoxy)imidazo[1,2-a]quinoline-4-carboxamide], the IC50 was found to be 0.0206 µM.

In the case of `CC[C@@H]1CC(=O)N[C@@H]1COc1cccc2cc(C(N)=O)c3nccn3c12` [Example 2, 9-(((2S,3R)-3-ethyl-5-oxopyrrolidin-2-yl)methoxy)imidazo[1,2-a]quinoline-4-carboxamide], the IC50 was found to be 0.015 µM.

Turning to `CC[C@H]1[C@@H](COc2cccc3cc(C(N)=O)c4nccn4c23)NC(=O)[C@@]1(C)F` [Example 6, 9-(((2S,3 S,4S)-3-ethyl-4-fluoro-4-methyl-5-oxopyrrolidin-2-yl)methoxy)imidazo[1,2-a]quinoline-4-carboxamide], the IC50 is 0.518 µM.

`NC(=O)c1cc2cccc(OC[C@H]3COCC(=O)N3)c2n2ccnc12` [Example 7, (R)-9-((5-oxomorpholin-3-yl)methoxy)imidazo[1,2-a]quinoline-4-carboxamide]: the IC50 was found to be 0.243 µM.

On to `CC[C@@H]1[C@H](F)C(=O)N[C@@H]1COc1cccc2cc(C(N)=O)c3nc(C(C)(C)O)cn3c12` [Example 13, 9-(((2S,3S,4S)-3-ethyl-4-fluoro-5-oxopyrrolidin-2-yl)methoxy)-2-(2-hydroxypropan-2-yl)imidazo[1,2-a]quinoline-4-carboxamide], for which the IC50 was 1.43 µM.

Regarding `CC[C@H]1OC(=O)N[C@H]1COc1nccc2cc(C(N)=O)c3nccn3c12` [Example 23, 1-(((4S,5R)-5-ethyl-2-oxooxazolidin-4-yl)methoxy)imidazo[1,2-a][1,7]naphthyridine-6-carboxamide], the IC50 amounted to 0.262 µM.

For the molecule `CC[C@@H]1OC(=O)N[C@H]1COc1nccc2cc(C(N)=O)c3nccn3c12` [Example 24, 1-(((4S,5S)-5-ethyl-2-oxooxazolidin-4-yl)methoxy)imidazo[1,2-a][1,7]naphthyridine-6-carboxamide], the IC50 turned out to be 0.176 µM.

Regarding `CC[C@H]1OCC(=O)N[C@H]1COc1nccc2cc(C(N)=O)c3nccn3c12` [Example 25, 1-(((2R,3S)-2-ethyl-5-oxomorpholin-3-yl)methoxy)imidazo[1,2-a][1,7]naphthyridine-6-carboxamide], the IC50 was 1.93 µM.

In the case of `CC[C@@H]1OCC(=O)N[C@@H]1COc1nccc2cc(C(N)=O)c3nccn3c12` [Example 26, 1-(((2S,3R)-2-ethyl-5-oxomorpholin-3-yl)methoxy)imidazo[1,2-a][1,7]naphthyridine-6-carboxamide], the IC50 came out at 0.0804 µM.

Regarding `NC(=O)c1cc2ccnc(OC[C@@H]3CNC(=O)N3)c2n2ccnc12` [Example 27, (S)-1-((2-oxoimidazolidin-4-yl)methoxy)imidazo[1,2-a][1,7]naphthyridine-6-carboxamide], the IC50 is 1.82 µM.

Regarding `CC[C@@H]1CC(=O)N[C@@H]1COc1nc(C)cc2cc(C(N)=O)c3nccn3c12` [Example 28, 1-(((2S,3R)-3-ethyl-5-oxopyrrolidin-2-yl)methoxy)-3-methylimidazo[1,2-a][1,7]naphthyridine-6-carboxamide], the IC50 is 0.225 µM.

As to `CC[C@@H]1CC(=O)N[C@@H]1COc1nc(C)cc2cc(C(N)=O)c3nc(C)cn3c12` [Example 29, 1-(((2S,3R)-3-ethyl-5-oxopyrrolidin-2-yl)methoxy)-3,8-dimethylimidazo[1,2-a][1,7]naphthyridine-6-carboxamide], the IC50 is 0.601 µM.

In the case of `CC[C@H]1CC(=O)N[C@@H]1COc1nccc2cc(C(N)=O)c3nc(C(F)(F)F)cn3c12` [Example 31, 1-(((2S,3S)-3-ethyl-5-oxopyrrolidin-2-yl)methoxy)-8-(trifluoromethyl)imidazo[1,2-a][1,7]naphthyridine-6-carboxamide], the IC50 came out at 1.06 µM.

For the molecule `CC[C@@H]1[C@H](F)C(=O)N(CO)[C@@H]1COc1nccc2cc(C(N)=O)c3nccn3c12` [Example 32], the IC50 stood at 0.062 µM.

For the molecule `CC[C@@H]1[C@H](F)C(=O)N[C@@H]1COc1cccc2cc(C(N)=O)c3ncnn3c12` [Example 38, 9-(((2S,3S,4S)-3-ethyl-4-fluoro-5-oxopyrrolidin-2-yl)methoxy)-[1,2,4]triazolo[1,5-a]quinoline-4-carboxamide], the IC50 amounted to 0.0603 µM.

In the case of `CC[C@@H]1[C@H](F)C(=O)N[C@@H]1COc1cccc2cc(C(N)=O)c3nc(C)nn3c12` [Example 40, 9-(((2S,3S,4S)-3-ethyl-4-fluoro-5-oxopyrrolidin-2-yl)methoxy)-2-methyl-[1,2,4]triazolo[1,5-a]quinoline-4-carboxamide], the half-inhibitory concentration (IC50) was found to be 0.0391 µM.

As to `CC[C@@H]1CC(=O)N[C@@H]1COc1cccc2cc(C(N)=O)c3nncn3c12` [Example 41, 9-(((2S,3R)-3-ethyl-5-oxopyrrolidin-2-yl)methoxy)-[1,2,4]triazolo[4,3-a]quinoline-4-carboxamide], the IC50 stood at 0.0422 µM.

In the case of `CC[C@H]1CC(=O)N[C@@H]1COc1cccc2cc(C(N)=O)c3nncn3c12` [Example 42, 9-(((2S,3S)-3-ethyl-5-oxopyrrolidin-2-yl)methoxy)-[1,2,4]triazolo[4,3-a]quinoline-4-carboxamide], the IC50 stood at 0.29 µM.

As for `CC[C@@H]1[C@H](F)C(=O)N[C@@H]1COc1cccc2cc(C(N)=O)c3nncn3c12` [Example 43, 9-(((2S,3S,4S)-3-ethyl-4-fluoro-5-oxopyrrolidin-2-yl)methoxy)-[1,2,4]triazolo[4,3-a]quinoline-4-carboxamide], the IC50 was determined as 0.0162 µM.

Turning to `CC[C@@H]1[C@H](F)C(=O)N[C@@H]1COc1cccc2cc(C(N)=O)c3nnnn3c12` [Example 45, 9-(((2S,3S,4S)-3-ethyl-4-fluoro-5-oxopyrrolidin-2-yl)methoxy)tetrazolo[1,5-a]quinoline-4-carboxamide], the IC50 worked out at 0.07 µM.

As for `CC[C@@H]1[C@H](F)C(=O)N[C@@H]1COc1nccc2cc(C(N)=O)c3ncnn3c12` [Example 47, 9-(((2S,3S,4S)-3-ethyl-4-fluoro-5-oxopyrrolidin-2-yl)methoxy)-[1,2,4]triazolo[1,5-a][1,7]naphthyridine-4-carboxamide], the IC50 is 0.0781 µM.

On to `CC[C@@H]1CC(=O)N[C@@H]1COC1=C(F)C=CC2C=C(C(N)=O)c3nccn3C12` (stereo partly drawn) [Example 59, 9-(((2S,3R)-3-ethyl-5-oxopyrrolidin-2-yl)methoxy)-8-fluoro-5a,9a-dihydroimidazo[1,2-a]quinoline-4-carboxamide], for which the IC50 was found to be 0.112 µM.

As to `CC[C@@H]1CC(=O)N[C@@H]1COC1=CC=CC2C=C(C#N)c3nccn3C12` (stereo partly drawn) [Example 60, 9-(((2S,3R)-3-ethyl-5-oxopyrrolidin-2-yl)methoxy)-5a,9a-dihydroimidazo[1,2-a]quinoline-4-carbonitrile], the IC50 worked out at 0.35 µM.

As for `CC[C@@H]1[C@H](F)C(=O)N[C@@H]1COC1=CC=CC2C(NC)=C(C(N)=O)c3nccn3C12` (stereo partly drawn) [Example 61, 9-(((2S,3S,4S)-3-ethyl-4-fluoro-5-oxopyrrolidin-2-yl)methoxy)-5-(methylamino)-5a,9a-dihydroimidazo[1,2-a]quinoline-4-carboxamide], the IC50 worked out at 0.0944 µM.

For the molecule `CC[C@@H]1[C@H](F)C(=O)N[C@@H]1COc1nccc2cc(C(N)=O)c3c(c12)CC(C)(C)O3` [Example 63, 1-(((2S,3S,4S)-3-ethyl-4-fluoro-5-oxopyrrolidin-2-yl)methoxy)-8,8-dimethyl-8,9-dihydrofuro[2,3-h]isoquinoline-6-carboxamide], the IC50 is 0.0022 µM.

The same assay, now with this note: ATP 500 μM; FL-[…] peptide 1.5 μM; IRAK4 0.6 nM; 60 min room temperature; Caliper LABCHIP 3000.
With `CC[C@@H]1CC(=O)N[C@@H]1COc1nccc2cc(C(N)=O)c3nc(C(F)(F)F)cn3c12` [Example 30, 1-(((2S,3R)-3-ethyl-5-oxopyrrolidin-2-yl)methoxy)-8-(trifluoromethyl)imidazo[1,2-a][1,7]naphthyridine-6-carboxamide], the IC50 worked out at 1.72 µM.
